Columns and labels:
[1] = test system: Nude mice (nu/nu), AtT-20 cells; test: Tumor-associated cachexia model, urinary urea loss; assay type: in vivo; settings: for URINARY UREA LOSS / URINARY UREA LOSS, Sum totals: 0.4 mg/Kg daily i.p.; for URINARY UREA LOSS, Sum totals: sum of listed days
Procedure: An animal model of tumor-associated protein catabolic illness (cachexia) was employed to directly test the efficacy of Compound No. 14 in reducing whole-body nitrogen losses. Tumors were induced in the appropriate groups by intramuscular inoculation with 15×10^6 AtT-20 cells; this model is known to cause a protein catabolic illness characterized by the consumption of normal quantities of food, but 20% net whole-body losses of protein within 14 days. Compound No. 14 was administered to the “treated” groups in a daily dose of 0.4 mg/Kg, intraperitoneal. Nude mice (nu/nu) were housed in metabolic cages (4 per cage) to facilitate collection of daily urine samples for 14 days. Food intake was measured daily. There were four groups of animals: 1) untreated, non-tumor bearing controls; 2) untreated, tumor-bearing; 3) treated, tumor-bearing, and 4) treated, non-tumor-bearing. Urine was collected and urinary urea losses quantified.

RAW 264.7 cells = test: Whole cell inhibition assay for arginine uptake; assay type: cell-based, murine; settings: for arginine transport % suppression of induced peak: γIFN+LPS, 8 hours
Procedure: In the embodiment described in the working example herein, a test population of cells was cultured for about 3 hours so that the cells became firmly adherent. Various concentrations of the potential inhibitors were then added to parallel cultures. One hour later the macrophage stimulators, e.g. including, but not limited to LPS and γIFN, were added. Eighteen hours later the cells were washed in a warm balanced salt solution supplemented with glucose. Carrier-free radiolabelled arginine was added; after 5 minutes, active uptake of arginine was stopped by washing the cell three times with buffer, chilled to 0° C., containing 10 mM unlabeled arginine to displace any externally bound label. The contents of the washed cells are solubilized in 100 μl of formic acid and counted by standard techniques.
RAW 264.7 cells are plated in standard 96-well microculture plates at a concentration of 10^5/well and allowed to adhere for from 2 hours to overnight. The medium is then replaced with medium containing the compound to be tested. One hour later, the medium is supplemented so as to contain 25 U/ml γIFN and 0.1 μg/ml LPS and the cultures incubated a further. The cells are then rinsed twice in HEPES- buffered Krebs salt solution with 0.1% glucose. Carrier-free tetra-^3H-arginine is added to each well (2.5 μCi/well with specific activity of […]) and the active uptake of arginine is allowed to continue for a 5 minute period after which the cells are rapidly cooled to 0° C. by lavage with iced saline containing 10 mM unlabeled arginine to displace any externally bound label. The contents of the washed cells are solubilized in 100 Al of formic acid and counted by standard techniques. In subsequent experiments to determine the acitivity of the inhibitors, incubations were performed for 8 hours.
This section describes experiments that measure the concentration of Compound No. 14 needed to inhibit arginine uptake and NO output. The techniques employed were described in section 7.1 supra.

[2] = test system: Endothelial Derived Relaxing Factor (EDRF) activity; test: Acetylcholine-induced hypotensive (EDRF) response; assay type: in vivo, rats; settings: 50 mg/Kg single intra-arterial dose; blood pressure 30 sec after ACh
Procedure: Female Sprague-Dawley rats (225-250 g body weight) were anesthetized with nembutal (50 mg/Kg, i.p.), a tracheostomy tube was inserted, and the carotid artery and jugular vein cannulated by standard methods using polyethylene tubing (PE 50). Tracey, K. J., et al., 1986, SCIENCE 234, 470-474. Blood pressure was recorded continuously with a pressure transducer and recorder (Model RS-3200, Gould Inc.,). In the experiment shown here, animals received a single sterile intra-arterial dose of either N^G-methyl-L-arginine (NMA; Sigma; 10 mg/Kg), Compound No. 14 (50 mg/Kg), or vehicle (0.4 ml). Acetylcholine (ACh) diluted in LPS-free sterile water was administered via the jugular vein cannula at the doses indicated. The solutions were diluted to produce a constant injectable volume of 1 ml/Kg body weight.
The hypotensive (EDRF) response was measured as the decline in mean arterial blood pressure recorded 30 sec after administration of ACh. The number of animals studied at each dose of acetylcholine was 4-6 for each experimental condition; data are expressed as the mean +s.e.m.

MIP-1β = test: Cytokine production by LPS/γIFN-stimulated human PBMC: MIP-1β; assay type: cell-based; settings: γIFN+LPS, 18 hr
Source text: Similar results concerning a variety of cytokines in addition to TNF, e.g., IL-6 and Macrophage Inflammatory Proteins-1α and -1β (MIP-1α and MIP-1β) were obtained using human peripheral blood as a source of monocytes. Human peripheral blood mononuclear cells (PBMC) were isolated using “FICOLL®”-based methods and plated in standard 6-well culture plates at a concentration of 10^6/well and allowed to adhere for from 2 hr to overnight whereupon non-adherent cells were washed out and the medium was then replaced with medium containing the compound to be tested. One hour later, the medium was supplemented so as to contain 25 U/ml γIFN and 0.1 μg/ml LPS and the cultures incubated a further 18 hr. The medium was then collected, and cell debris removed by centrifugation. This conditioned supernatant was then assayed for the presence of cytokines using the standard methodologies of L929 cell cytotoxicity bioassay and immunoassay (ELISA).

[3] = over the 14 day period, per mouse

In the case of `CC(=NNC(=N)N)c1cc(NC(=O)CCCCCCCCC(=O)Nc2cc(C(C)=NNC(=N)N)cc(C(C)=NNC(=N)N)c2)cc(C(C)=NNC(=N)N)c1.Cl.Cl.Cl.Cl` [Compound 14, N,N′-bis(3,5-diacetyl-phenyl)decanediamide tetrakis(amidinohydrazone) tetrahydrochloride], the “URINARY UREA LOSS” value ([1]; Controls, Treated (non-tumor-bearing), day 2) is reported as 193 mg/group, the “URINARY UREA LOSS” value ([1]; Controls, Treated (non-tumor-bearing), day 4) is reported as 285 mg/group and the “URINARY UREA LOSS” value ([1]; Controls, Treated (non-tumor-bearing), day 6) is reported as 397 mg/group. The “URINARY UREA LOSS” value ([1]; Controls, Treated (non-tumor-bearing), day 7) was 247 mg/group, the “URINARY UREA LOSS” value ([1]; Controls, Treated (non-tumor-bearing), day 8) was 257 mg/group and the “URINARY UREA LOSS” value ([1]; Controls, Treated (non-tumor-bearing), day 10) was 216 mg/group. The “URINARY UREA LOSS” value ([1]; Controls, Treated (non-tumor-bearing), day 11) was 239 mg/group, the “URINARY UREA LOSS” value ([1]; Controls, Treated (non-tumor-bearing), day 12) was 203 mg/group and the “URINARY UREA LOSS” value ([1]; Controls, Treated (non-tumor-bearing), day 13) was 242 mg/group. For the same molecule, the “URINARY UREA LOSS” value ([1]; Controls, Treated (non-tumor-bearing), day 14) was 157 mg/group, the “URINARY UREA LOSS, Sum totals” value ([1]; Controls, Treated (non-tumor-bearing)) was 2436 mg/group and the “URINARY UREA LOSS” value ([1]; Tumor, Treated, day 2 after tumor) was 195 mg/group. For the same molecule, the “URINARY UREA LOSS” value ([1]; Tumor, Treated, day 4 after tumor) was 368 mg/group, the “URINARY UREA LOSS” value ([1]; Tumor, Treated, day 6 after tumor) was 295 mg/group and the “URINARY UREA LOSS” value ([1]; Tumor, Treated, day 7 after tumor) was 312 mg/group. The “URINARY UREA LOSS” value ([1]; Tumor, Treated, day 8 after tumor) was 275 mg/group, the “URINARY UREA LOSS” value ([1]; Tumor, Treated, day 10 after tumor) was 206 mg/group and the “URINARY UREA LOSS” value ([1]; Tumor, Treated, day 11 after tumor) was 219 mg/group. For the same molecule, the “URINARY UREA LOSS” value ([1]; Tumor, Treated, day 12 after tumor) was 115 mg/group, the “URINARY UREA LOSS” value ([1]; Tumor, Treated, day 13 after tumor) was 201 mg/group and the “URINARY UREA LOSS” value ([1]; Tumor, Treated, day 14 after tumor) was 187 mg/group. The “URINARY UREA LOSS, Sum totals” value ([1]; Tumor, Treated) was 2373 mg/group, the “loss of urea prevented” value ([1]; over the 14 day period) was “approximately 200 mg urea/mouse” and the “nitrogen retained (equivalent of urea loss prevented)” value [1, 3] was “approximately 100 mg”. The “protein retained (equivalent of urea loss prevented)” value [1, 3] was about 625 mg, the “wet muscle mass retained (equivalent of urea loss prevented)” value [1, 3] was about 2.7 g and the “arginine transport % suppression of induced peak” value (shortened to “arginine transport % suppression”) (RAW 264.7 cells; dose 2 μM) was 9%. The “arginine transport % suppression” value (RAW 264.7 cells; dose 10 μM) was 19%, the “arginine transport % suppression” value (RAW 264.7 cells; dose 50 μM) was 86% and the “arginine transport % suppression” value (RAW 264.7 cells; dose 200 μM) was 100%. The IC50 (RAW 264.7 cells; exposed prior to stimulation, uptake measured at 8 hours, read-out: I.C.50 for arginine uptake) was 7.5 µM, the “acetylcholine-induced EDRF activity in vivo” value [2] was “did not suppress” and the “concentration that effectively inhibited production of MIP-1β” value (MIP-1β) was 10 to 20 µM.

Source: patent publication US20020028851A1, “Guanylhydrazones and their use to treat inflammatory conditions” (priority 1994, published 2002)
